Source: patent US20140243422A1, “METHODS OF TREATING BEHAVIORAL AND PSYCHIATRIC DISORDERS” (ELAN PHARMACEUTICALS, INC., priority 2011, published 2014)

Assays:
[1] = tested on: patients with mild to moderate AD (MMSE 16-26); test: Phase 2 trial: safety and tolerability; assay type: in vivo, human; details: 250 mg bid, elderly study population
Method: The present study was a dose ranging study in Mild and Moderate AD patients (defined as having MMSE scores of 16-26 inclusive), and included 3 doses of scyllo-insoitol given bid (250 mg, 1000 mg, and 2000 mg) and placebo. The study was of 78 weeks duration and enrolled a total of 353 patients, and 351 received study drug (safety population). Due to safety findings in the 2 highest dose groups, these 2 groups were discontinued and the study's final efficacy analysis was based only on the 250 mg and placebo groups. The primary efficacy analysis was based on the overall population (mild and moderate), but the statistical analysis plan (SAP) Included subgroup analyses by disease severity, and defined Mild as patients with MMSE 23-26 and Moderate 16-22 inclusive. In the overall study population, total randomized to all 4 dose groups=353, total that received study drug=351 (safety population, at any dose). For placebo and 250 mg group, the overall m-ITT (modified intent-to-treat)=166, overall PPS (per protocol set)=96.
In summary, scyllo-inositol exposures ≧1000 mg bid provide less cognitive and functional benefit than the 250 mg bid dose. These high exposures may be associated with an increase in neuropsychiatric adverse events.

CSF Abeta42 = test: Phase 2 trial: cerebrospinal fluid Abeta42; assay type: in vivo, human; details: 250 mg bid; statistically significant
Method: The effect of the 250 mg dose on cerebrospinal fluid (CSF) Abeta42 reduction (˜27% compared to baseline) was statistically significant, but the higher doses seemed to provide further Abeta42 reduction. Despite the dose-dependent effects of scyllo-inositol on CSF Abeta42, the 2 high doses consistently produced smaller effects on clinical endpoints than the 250 mg dose. This observed dissociation between the dose-dependent effects on CSF Abeta42 and the clinically measured NPI outcomes supports the concept that scyllo Inositol clinical effects are mediated by two distinct mechanisms. These mechanisms include: 1. reduction of brain amyloid load and resulting synaptic toxicity which has previously been disclosed affect memory and reasoning/problem solving, but not NPS, and 2. down-regulation of brain myo-inositol levels with secondary salutary effects on neuronal function (Machado-Vieira et al. 2009). The only other MRS studies measuring in vivo brain levels of myo-inositol and scyllo-inositol after scyllo-inositol administration were in transgenic mice. (Choi, et al. 2010, Neuropharmacology, 59(4-5): 353-357). […] The details of the Phase 2 data are described below.

SMILES: O[C@H]1[C@H](O)[C@@H](O)[C@H](O)[C@@H](O)[C@@H]1O [scyllo-inositol]
- safety and CNS tolerability [1]: acceptable safety and good CNS tolerability
- CSF Abeta42 reduction compared to baseline (CSF Abeta42): 27%
